{"source": "patent US20080306126A1", "about": "“Peroxisome proliferator activated receptor treatment of hyperhomocysteinemia and its complications” (priority 2004, published 2008)", "assay_type_in_all_cases": "in vivo, Sprague Dawley rats", "key": {"[1]": {"test": "Serum homocysteine levels by high pressure liquid chromatography", "experimental": "(§1) Ten-week-old female Sprague Dawley rats were obtained from Harlan Laboratories (Indianapolis, Ind.). After an acclimatization period of one week, they were fed a powdered control diet with or without methionine for one week. After one week on the normal or methionine diet, an aqueous preparation rosiglitazone (3.0 mg/kg/d) or vehicle was administered by gavage. The methionine diet was prepared with 10 g of L-methionine obtained from Sigma Chemical Company in St. Louis, Miss., added to 10 kg of powdered feed and thoroughly mixed. The rats were divided into four groups (n=7/group) and fed a) control diet; b) control diet with administration of rosiglitazone; c) methionine diet; and d) methionine diet with rosiglitazone.\n(§2) Before the beginning of the experiment, and at the time of sacrificing the animal a blood sample was obtained from each rat. At the end of the experiment, rats were sacrificed using a carbon dioxide chamber for harvesting tissues. Samples of blood and liver were collected and immediately processed. The serum and liver samples were stored frozen.\n(§3) The Hcy levels were measured by high pressure liquid chromatography according to an established method (28,29). Cystathionine-β-synthase (CβS) was assayed in the liver samples, and the procedure followed was as previously published (26)."}, "[2]": {"tested_on": "balloon catheter-injured carotid arteries", "test": "Balloon catheter injury of the carotid artery: development of intimal hyperplasia (I/M ratio)", "details": "for I/M ratio of representative micrograph (single animal): 21 days after injury; for I/M (intimal/medial ratio), group mean: three weeks after catheter injury", "experimental": "as §1\nBalloon catheter injury of to the carotid artery was induced as previously published (27). Briefly, a 2.0 mm PTCA obtained from Boston Scientific, Inc. in Quincy, Mass. was introduced through the femoral artery to the left carotid. The balloon was inflated to 4 atmospheres for 20 seconds and then deflated to 2 atmospheres and dragged down to the aorta. The animals were continued on their respective diets and rosiglitazone treatment was continued as indicated for three weeks after the surgery. The surgical procedures were conducted under anesthesia in a totally aseptic atmosphere. All rats had free access to the feed and water, and were maintained in a 12 hour day/light cycle.\nThe carotid arteries were separated and flushed with zinc buffered formalin. Each artery was cut from top into 4 equal segments and placed sequentially for embedding in paraffin. Sections no thicker then 6 um were cut and stained with hemotoxalin and eosin for microscopy. All four segments were read and the intimal/medial (I/M) ratio was calculated using Image-Pro software (NIH). The mean of the I/M ratios of the 4 sections reflected the I/M for one animal."}, "[3]": {"tested_on": "cystathionine-β-synthase (CβS)", "test": "Cystathionine-β-synthase activity assayed in liver samples of treated rats", "details": "methionine diet with rosiglitazone, methionine diet alone 0.35+/−0.05", "experimental": "as §1, §2, §3"}}}
{"smiles": "CN(CCOc1ccc(CC2SC(=O)NC2=O)cc1)c1ccccn1", "note": "(stereo not drawn) [rosiglitazone]", "values": [{"measurement": "serum homocysteine level", "setting": "[1]; control diet with rosiglitazone, control diet alone 6.3+/−0.04 μM", "result": "5.1 ± 0.6", "unit": "µM"}, {"measurement": "homocysteine level", "setting": "[1]; methionine diet with rosiglitazone treatment (background summary)", "result": "16.4 ± 1.7", "unit": "µM"}, {"measurement": "serum homocysteine concentration", "setting": "[1]; methionine diet with rosiglitazone, methionine diet alone 28.9+/−3.2 μM", "result": "16.4 ± 1.7", "unit": "µM"}, {"measurement": "I/M ratio of representative micrograph (single animal)", "setting": "[2]; FIG. 1 micrograph C: control diet with rosiglitazone", "result": 0.19}, {"measurement": "I/M ratio of representative micrograph (single animal)", "setting": "[2]; FIG. 1 micrograph D: methionine diet with rosiglitazone", "result": 0.17}, {"measurement": "I/M (intimal/medial ratio), group mean", "setting": "[2]; control diet with rosiglitazone 3.0 mg/kg/d by gavage, control diet alone 0.18+/−0.05", "result": "0.21+/−0.03"}, {"measurement": "I/M (intimal/medial ratio), group mean", "setting": "[2]; methionine diet with rosiglitazone 3.0 mg/kg/d by gavage, methionine diet alone 0.82+/−0.21", "result": "0.28+/−0.12"}, {"measurement": "I/M (intimal/medial ratio), group mean", "setting": "[2]; methionine diet with rosiglitazone 3.0 mg/kg/d by gavage, methionine diet alone 0.82+/−0.21, listed as Rosiglitazone", "result": "0.27+/−0.12"}, {"measurement": "CβS activity", "setting": "[3]", "result": "0.57+/−0.1 μmoles/mg protein"}]}
